Experimental data: ChEMBL document CHEMBL5030558, “Optimization and Evaluation of Novel Antifungal Agents for the Treatment of Fungal Infection” (J Med Chem, 2021)
Activity calls are given as the source filed them. No cut-off for these calls is given here.

Tests used:
[1] = Effect on cell wall integrity in Cryptococcus neoformans H99 assessed as increase in HXL1 activation ratio at 4 ug/ml after 2 hrs by immunoblot analysis (reference value: 1); assay type: functional; details: dose 4 µg/ml
[2] = Stability in mouse liver microsomes assessed as parent compound remaining after 30 mins; assay type: ADME, Microsome; details: liver microsomes, read-out: Stability
Aspergillus fumigatus = assay: Synergistic antifungal activity against Aspergillus fumigatus AF293 assessed as FICI in presence of ICZ after 48 hrs by checker board assay; assay type: functional, organism-based
[3] = Cmax in dog at 1 mg/kg, iv; assay type: ADME, organism-based, Canis lupus familiaris; set-up: route intravenous, dose 1 mg/kg; details: in vivo
Cytochrome P450 3A4 = Cytochrome P450 3A4 (Homo sapiens, UniProt P08684); assay: Inhibition of CYP3A4 (unknown origin) relative to control; assay type: ADME
Sequence of Cytochrome P450 3A4 (P08684 whole entry): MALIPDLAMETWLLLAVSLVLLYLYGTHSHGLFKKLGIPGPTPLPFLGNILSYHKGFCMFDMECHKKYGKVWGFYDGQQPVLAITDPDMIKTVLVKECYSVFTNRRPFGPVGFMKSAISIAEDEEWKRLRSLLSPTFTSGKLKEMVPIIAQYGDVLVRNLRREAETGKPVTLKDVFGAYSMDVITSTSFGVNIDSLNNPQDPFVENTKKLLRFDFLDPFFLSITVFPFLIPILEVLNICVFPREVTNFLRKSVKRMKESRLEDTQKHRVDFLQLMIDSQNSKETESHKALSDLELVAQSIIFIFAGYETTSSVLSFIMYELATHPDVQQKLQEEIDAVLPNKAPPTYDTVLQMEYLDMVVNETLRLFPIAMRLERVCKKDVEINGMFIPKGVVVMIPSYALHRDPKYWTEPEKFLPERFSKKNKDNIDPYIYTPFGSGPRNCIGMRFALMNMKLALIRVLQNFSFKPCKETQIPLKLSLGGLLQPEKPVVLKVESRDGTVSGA

[4] = Cmax in dog at 10 mg/kg, po; assay type: ADME, organism-based, Canis lupus familiaris; set-up: route oral, dose 10 mg/kg; details: in vivo
[5] = Stability in rat liver microsomes assessed as parent compound remaining after 30 mins; assay type: ADME, Microsome; details: liver microsomes, read-out: Stability
[6] = target: Voltage-gated inwardly rectifying potassium channel KCNH2 (Homo sapiens, UniProt Q12809); assay: Inhibition of human ERG by patch clamp assay
Sequence of Voltage-gated inwardly rectifying potassium channel KCNH2 (Q12809 whole entry): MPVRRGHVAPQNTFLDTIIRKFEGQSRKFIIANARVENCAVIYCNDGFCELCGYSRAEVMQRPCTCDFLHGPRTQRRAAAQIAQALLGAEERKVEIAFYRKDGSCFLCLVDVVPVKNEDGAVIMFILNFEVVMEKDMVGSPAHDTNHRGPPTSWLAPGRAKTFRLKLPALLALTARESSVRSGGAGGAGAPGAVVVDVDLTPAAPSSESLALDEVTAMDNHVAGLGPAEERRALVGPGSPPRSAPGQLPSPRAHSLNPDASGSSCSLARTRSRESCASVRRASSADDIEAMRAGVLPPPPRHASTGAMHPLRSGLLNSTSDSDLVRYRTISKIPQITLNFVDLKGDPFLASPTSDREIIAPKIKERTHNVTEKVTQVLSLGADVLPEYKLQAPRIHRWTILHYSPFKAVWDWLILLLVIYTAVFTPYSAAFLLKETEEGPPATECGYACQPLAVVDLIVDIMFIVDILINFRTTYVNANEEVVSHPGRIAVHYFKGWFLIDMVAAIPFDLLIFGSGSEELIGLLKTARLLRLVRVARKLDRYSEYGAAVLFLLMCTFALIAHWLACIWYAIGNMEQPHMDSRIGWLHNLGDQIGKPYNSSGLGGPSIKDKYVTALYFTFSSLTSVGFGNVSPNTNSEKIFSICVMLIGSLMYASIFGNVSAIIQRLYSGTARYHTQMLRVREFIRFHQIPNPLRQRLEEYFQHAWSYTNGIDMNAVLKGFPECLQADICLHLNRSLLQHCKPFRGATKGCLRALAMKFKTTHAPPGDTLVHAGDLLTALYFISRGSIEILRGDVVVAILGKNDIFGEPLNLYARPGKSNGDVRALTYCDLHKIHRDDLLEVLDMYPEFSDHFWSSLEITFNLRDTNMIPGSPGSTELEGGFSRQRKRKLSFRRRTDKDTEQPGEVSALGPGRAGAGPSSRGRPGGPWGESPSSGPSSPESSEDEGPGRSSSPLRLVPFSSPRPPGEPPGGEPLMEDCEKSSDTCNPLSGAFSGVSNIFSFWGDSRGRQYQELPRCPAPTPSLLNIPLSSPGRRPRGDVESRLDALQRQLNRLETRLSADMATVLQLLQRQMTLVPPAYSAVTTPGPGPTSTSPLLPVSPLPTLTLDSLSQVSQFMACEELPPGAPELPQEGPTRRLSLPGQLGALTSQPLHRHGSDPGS

[7] = AUC(0 to t) in Sprague-Dawley rat at 10 mg/kg, po; assay type: ADME, organism-based; set-up: dose 10 mg/kg; details: in vivo
Cryptococcus neoformans [8] = assay: Fungicidal activity against Cryptococcus neoformans H99 at 2 times of MIC after 12 hrs by time-kill kinetics assay; assay type: functional, organism-based
Trichophyton rubrum [9] = assay: Fungicidal activity against Trichophyton rubrum KCCM60450 at 4 ug/ml by time-kill kinetics assay; assay type: functional, organism-based; details: dose 4.0 µg/ml
Cryptococcus neoformans [10] = assay: Additive antifungal activity against Cryptococcus neoformans H99 assessed as FICI in presence of 5-FC after 48 hrs by checker board assay; assay type: functional, organism-based
Candida albicans [11] = assay: Induction of drug resistant in Candida albicans ATCC SC5314 assessed as increase in compound IC50 at 8 to 12 times MIC; assay type: functional, organism-based
[12] = Toxicity in Sprague-Dawley rat assessed as death at 500 to 1000 mg/kg, po measured after 14 days; assay type: organism-based; details: in vivo, 336 h, dose 500-1000 mg/kg, time 14 day
CYP1A2 = target: T1, CYP1A2 (Homo sapiens, UniProt P05177); assay: Inhibition of CYP1A2 (unknown origin) relative to control; assay type: ADME
T1 sequence (P05177 whole entry): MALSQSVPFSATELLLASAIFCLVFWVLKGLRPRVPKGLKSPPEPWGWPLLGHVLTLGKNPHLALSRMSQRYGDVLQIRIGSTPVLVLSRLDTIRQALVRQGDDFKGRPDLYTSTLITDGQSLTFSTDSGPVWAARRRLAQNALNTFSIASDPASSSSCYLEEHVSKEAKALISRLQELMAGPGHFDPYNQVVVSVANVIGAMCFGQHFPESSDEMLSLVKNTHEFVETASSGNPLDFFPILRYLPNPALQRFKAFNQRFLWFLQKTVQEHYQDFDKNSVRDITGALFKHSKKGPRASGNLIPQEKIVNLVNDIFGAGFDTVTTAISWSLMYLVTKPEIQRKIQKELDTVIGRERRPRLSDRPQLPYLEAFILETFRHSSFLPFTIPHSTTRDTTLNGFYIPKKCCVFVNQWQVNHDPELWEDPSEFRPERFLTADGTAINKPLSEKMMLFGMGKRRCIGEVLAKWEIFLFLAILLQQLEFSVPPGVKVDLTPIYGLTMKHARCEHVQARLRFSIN

Candida albicans [13] = assay: Antifungal activity against Candida albicans ATCC SC5314 assessed as reduction in fungal growth incubated for 48 hrs by CLSI based broth microdilution method; assay type: functional
[14] = system: Trichophyton mentagrophytes; assay: Fungicidal activity against Trichophyton mentagrophytes KCCM60449 at 4 ug/ml by time-kill kinetics assay; assay type: functional, organism-based; details: dose 4.0 µg/ml
Cryptococcus neoformans [15] = assay: Fungicidal activity against Cryptococcus neoformans H99 at 8 times of MIC after 2 hrs by time-kill kinetics assay; assay type: functional, organism-based
Nakaseomyces glabratus [16] = assay: Additive antifungal activity against Candida glabrata BG2 assessed as assessed as FICI in presence of CSP after 48 hrs by checker board assay; assay type: functional, organism-based
Cryptococcus neoformans [17] = assay: Synergistic antifungal activity against Cryptococcus neoformans XW252 in presence of FK506 by checkboard assay; assay type: functional, organism-based
Candida albicans [18] = assay: Synergistic antifungal activity against Candida albicans ATCC SC5314 assessed as FICI in presence of AmB after 48 hrs by checker board assay; assay type: functional, organism-based
[19] = Effect on cell wall integrity in Cryptococcus neoformans H99 assessed as activation of Mpk1 by measuring increase in Mpk1 phosphorylation ratio at 8 ug/ml after 90 mins by immunoblot analysis (reference value: 1); assay type: functional; details: dose 8 µg/ml, 1.5 h
[20] = Stability in rat hepatocytes assessed as parent compound remaining incubated for 60 mins; assay type: ADME, cell-based, Hepatocyte; details: read-out: Stability
Trichophyton rubrum [21] = assay: Ex vivo antifungal activity against Trichophyton rubrum KCCM60450 infected in human nail assessed as reduction in ATP level at 5 % w/w after 24 hrs; assay type: functional; set-up: scale not given: the % may be the effect or the level left
[22] = Effect on cell wall integrity in Cryptococcus neoformans H99 assessed as activation of Mpk1 by measuring increase in Mpk1 phosphorylation ratio at 8 ug/ml after 30 mins by immunoblot analysis (reference value: 1); assay type: functional; details: dose 8 µg/ml, 0.5 h
[23] = AUC(0 to t) in dog at 1 mg/kg, iv; assay type: ADME, organism-based, Canis lupus familiaris; set-up: dose 1 mg/kg; details: in vivo
Cryptococcus neoformans [24] = assay: Additive antifungal activity against Cryptococcus neoformans H99 assessed as FICI in presence of FCZ after 48 hrs by checker board assay; assay type: functional, organism-based
[25] = Stability in human hepatocytes assessed as parent compound remaining incubated for 60 mins; assay type: ADME, cell-based, Hepatocyte; details: read-out: Stability
Cryptococcus neoformans [26] = assay: Induction of morphological changes in Cryptococcus neoformans H99 assessed as cell wall damage at 4 to 8 ug/ml incubated for 24 hrs by TEM analysis; assay type: functional, organism-based; details: dose 4-8 µg/ml
[27] = Stability in rat plasma assessed as parent compound remaining after 30 to 120 mins; assay type: ADME, cell-free; details: time 30-120 min
Trichophyton rubrum [28] = assay: Ex vivo antifungal activity against Trichophyton rubrum KCCM60450 infected in human nail assessed as reduction in ATP level at 0.5 % w/w after 24 hrs; assay type: functional; set-up: scale not given: the % may be the effect or the level left
[29] = Effect on cell wall integrity in Cryptococcus neoformans H99 assessed as activation of Mpk1 by measuring increase in Mpk1 phosphorylation ratio at 8 ug/ml after 60 mins by immunoblot analysis (reference value: 1); assay type: functional; details: dose 8 µg/ml, 1 h
[30] = Stability in minipig hepatocytes assessed as parent compound remaining incubated for 60 mins; assay type: ADME, cell-based, Sus scrofa domesticus, Liver; details: pig, read-out: Stability
Nakaseomyces glabratus [31] = assay: Synergistic antifungal activity against Candida glabrata BG2 assessed as FICI in presence of ICZ after 48 hrs by checker board assay; assay type: functional, organism-based
Candida albicans [32] = assay: In vivo antifungal activity against Candida albicans 90028 infected in BALB/c mouse assessed as reduction in size of inflammation measured upto 48 hrs post infection; assay type: functional, organism-based; details: time hrs <=48
HEK293 = assay: Cytotoxicity against human HEK293 cells upto 12.5 uM incubated for 24 hrs; assay type: cell-based; details: hek293, 24 h
[33] = Cmax in Sprague-Dawley rat at 10 mg/kg, po; assay type: ADME, organism-based; set-up: route oral, dose 10 mg/kg; details: in vivo
Candida albicans [34] = assay: Synergistic antifungal activity against Candida albicans ATCC SC5314 assessed as FICI in presence of ICZ after 48 hrs by checker board assay; assay type: functional, organism-based

CCCC(N)C(=O)NCCc1ccc(-c2ccc(Cl)c(Cl)c2)cc1.Cl (racemic)
Ratio [1]: 1.12
remaining at 0.5 h [2]: 78.2%
Activity (Aspergillus fumigatus): Active
Cmax [3]: 296 ng/mL
inhibition (INH) (Cytochrome P450 3A4): 43.7%
Cmax [4]: 4390 ng/mL
remaining at 0.5 h [5]: 72.3%
IC50 [6]: 39.5 µM
AUC(0-t) [7]: 527 ng·h/mL
Activity (Cryptococcus neoformans [8]): Active
Activity (Trichophyton rubrum [9]): Active
Activity (Cryptococcus neoformans [10]): Active
Activity (Candida albicans [11]): inactive
Activity [12]: Non-Toxic
inhibition at 10 µM (CYP1A2): 81.1%
MIC (Candida albicans [13]): 2 µg/mL
Activity [14]: Active
Activity (Cryptococcus neoformans [15]): Active
Activity (Nakaseomyces glabratus [16]): Active
Activity (Cryptococcus neoformans [17]): Active
Activity (Candida albicans [18]): Active
Ratio [19]: 3.32
remaining at 1 h [20]: 36.2%
Activity (Trichophyton rubrum [21]): 19.92%
Ratio [22]: 2.67
AUC(0-t) [23]: 2680 ng·h/mL
Activity (Cryptococcus neoformans [24]): Active
remaining at 1 h [25]: 79.1%
Activity (Cryptococcus neoformans [26]): Active
Stability [27]: 96.2%
Activity (Trichophyton rubrum [28]): 32.72%
Ratio [29]: 3.62
remaining at 1 h [30]: 49.6%
Activity (Nakaseomyces glabratus [31]): inactive
Activity (Candida albicans [32]): Active
Activity (HEK293): Non-Toxic
Cmax [33]: 97.3 ng/mL
Activity (Candida albicans [34]): inactive
